# Laboratory results as given in ChEMBL document CHEMBL1201862, “PubChem BioAssay data set” (2004).
#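 48-hour exposure; five concentrations; linearly interpolated endpoints. GI50 = concentration required for 50% inhibition of growth.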 Active and inactive are the calls of the source. Cut-off read from the data, not from the text of the source: active = GI50 up to about 1.1 µM and inactive = higher.
# Assays:
# Assay in all cases: DTP human tumour cell line panel, 48 h
# [1] = system: OVCAR-3
# [2] = system: RPMI-8226
# [3] = system: SF-268
# [4] = system: MOLT-4
# [5] = system: EKVX
# [6] = system: HCC 2998
# [7] = system: OVCAR-5
# [8] = system: LXFL 529
# [9] = system: UACC-257
# [10] = system: SF-295
# [11] = system: COLO 205
# [12] = system: K562
# [13] = system: HT-29
# [14] = system: SW-620
# [15] = system: T47D
# [16] = system: Hs-578T
# [17] = system: MDA-MB-435
# [18] = system: MCF7
# [19] = system: PC-3
# [20] = system: MDA-MB-231
SMILES,GI50 [1],GI50 [2],GI50 [3],GI50 [4],GI50 [5],GI50 [6],GI50 [7],GI50 [8],GI50 [9],GI50 [10],GI50 [11],GI50 [12],GI50 [13],GI50 [14],GI50 [15],GI50 [16],GI50 [17],GI50 [18],GI50 [19],GI50 [20]
CCOC(=O)C1=C(OC(OCC)C(CC)[Se]c2ccccc2)CCC1 (stereo not given),23.7 µM (inactive),19.3 µM (inactive),18.7 µM (inactive),20.1 µM (inactive),29.2 µM (inactive),15.2 µM (inactive),23.1 µM (inactive),18.7 µM (inactive),28 µM (inactive),16.9 µM (inactive),34.3 µM (inactive),44 µM (inactive),25.1 µM (inactive),–,–,–,–,–,–,–
Cc1cccc(C(=O)O)c1C(=O)c1cccc2ccccc12,> 100 µM (inactive),–,> 100 µM (inactive),33.1 µM (inactive),> 100 µM (inactive),> 100 µM (inactive),> 100 µM (inactive),> 100 µM (inactive),> 100 µM (inactive),> 100 µM (inactive),> 100 µM (inactive),65 µM (inactive),> 100 µM (inactive),> 100 µM (inactive),–,–,–,–,–,–
COc1cc2c(cc1OC)[C@]1(O)C(=O)c3ccc4c(c3O[C@@H]1CO2)C[C@H](C(C)(C)O)O4,74.3 µM (inactive),36.5 µM (inactive),–,48.9 µM (inactive),10.3 µM (inactive),> 100 µM (inactive),> 100 µM (inactive),56.1 µM (inactive),6.95 µM (inactive),–,> 100 µM (inactive),17.1 µM (inactive),> 100 µM (inactive),> 100 µM (inactive),–,–,–,–,–,–
O=C1C(c2ccccc2)=C(c2ccccc2)[C@H](c2ccccc2)[C@]1(Cc1nnn(-c2ccc([N+](=O)[O-])cc2)c1N1CCOCC1)c1ccccc1,9.93 µM (inactive),> 37.5 µM (inactive),–,12.1 µM (inactive),> 37.5 µM (inactive),> 37.5 µM (inactive),–,24.4 µM (inactive),> 37.5 µM (inactive),35.6 µM (inactive),> 37.5 µM (inactive),> 37.5 µM (inactive),> 37.5 µM (inactive),> 37.5 µM (inactive),–,–,–,–,–,–
NC(=O)NC1C(C(N)=O)N(Cc2ccccc2)C(=O)N1Cc1ccccc1 (stereo not given),> 100 µM (inactive),> 100 µM (inactive),> 100 µM (inactive),> 100 µM (inactive),> 100 µM (inactive),> 100 µM (inactive),40.7 µM (inactive),> 100 µM (inactive),> 100 µM (inactive),> 100 µM (inactive),> 100 µM (inactive),> 100 µM (inactive),> 100 µM (inactive),> 100 µM (inactive),–,–,–,–,–,–
Cc1cc(C(=O)NCCN(C)C)c2nc3ccccc3nc2c1,5.71 µM (inactive),3.15 µM (inactive),–,0.128 µM (active),8.26 µM (inactive),6.38 µM (inactive),7.43 µM (inactive),8.3 µM (inactive),4.16 µM (inactive),4.55 µM (inactive),3.08 µM (inactive),2.05 µM (inactive),2.67 µM (inactive),1.97 µM (inactive),–,–,–,–,–,–
CCCCCCCCCCCC(=O)OCC1OC(n2cc(F)c(=O)[nH]c2=O)C(NC(=O)OCc2ccccc2)C(O)C1O (stereo not given),25 µM (inactive),19.4 µM (inactive),39.5 µM (inactive),21.2 µM (inactive),30.5 µM (inactive),18.4 µM (inactive),–,18.6 µM (inactive),23.4 µM (inactive),27.9 µM (inactive),21.2 µM (inactive),21.7 µM (inactive),16.1 µM (inactive),20.6 µM (inactive),–,–,–,–,–,–
N#CC(C(=O)/C(=N\Nc1nc(S)nn1N)C(C#N)c1ccc(Cl)cc1)c1ccc(Cl)cc1 (stereo not given),> 100 µM (inactive),> 100 µM (inactive),> 100 µM (inactive),–,> 100 µM (inactive),> 100 µM (inactive),> 100 µM (inactive),> 100 µM (inactive),> 100 µM (inactive),> 100 µM (inactive),> 100 µM (inactive),–,> 100 µM (inactive),> 100 µM (inactive),–,–,–,–,–,–
CC(C)(C)C(=O)O[C@@H]1COC2C(O)COC21 (stereo not given in full),> 100 µM (inactive),–,> 100 µM (inactive),19.7 µM (inactive),–,> 100 µM (inactive),> 100 µM (inactive),> 100 µM (inactive),> 100 µM (inactive),> 100 µM (inactive),> 100 µM (inactive),> 100 µM (inactive),> 100 µM (inactive),> 100 µM (inactive),–,–,–,–,–,–
N#CCCc1nc2ccc(Br)cc2c(=O)n1CCO,> 100 µM (inactive),> 100 µM (inactive),> 100 µM (inactive),> 100 µM (inactive),> 100 µM (inactive),> 100 µM (inactive),–,> 100 µM (inactive),> 100 µM (inactive),> 100 µM (inactive),> 100 µM (inactive),> 100 µM (inactive),–,> 100 µM (inactive),–,–,–,–,–,–
O=C(CN(Cc1ccccc1)Cc1ccccc1)N1CCc2c([nH]c3ccccc23)C1c1cccnc1 (stereo not given),5.82 µM (inactive),1.86 µM (inactive),9.51 µM (inactive),2.26 µM (inactive),7.71 µM (inactive),13.2 µM (inactive),7.38 µM (inactive),6.67 µM (inactive),13.2 µM (inactive),6.64 µM (inactive),–,3.17 µM (inactive),5.57 µM (inactive),5.65 µM (inactive),–,–,–,–,–,–
Cc1cccc(CC(C)(C)C)c1NC(=O)C(=O)C(C(=O)c1ccc2ccccc2c1)C1OC(=O)c2ccccc21 (stereo not given),58.5 µM (inactive),10.1 µM (inactive),8.53 µM (inactive),–,20.7 µM (inactive),12.1 µM (inactive),15.2 µM (inactive),7.01 µM (inactive),12 µM (inactive),4.55 µM (inactive),15.4 µM (inactive),–,20.2 µM (inactive),6.78 µM (inactive),–,–,–,–,–,–
N#CC1C2CCC3(CC2CCN1C(=O)c1ccccc1)OCCO3 (stereo not given),> 100 µM (inactive),> 100 µM (inactive),> 100 µM (inactive),> 100 µM (inactive),> 100 µM (inactive),> 100 µM (inactive),> 100 µM (inactive),> 100 µM (inactive),> 100 µM (inactive),> 100 µM (inactive),> 100 µM (inactive),> 100 µM (inactive),> 100 µM (inactive),> 100 µM (inactive),–,–,–,–,–,–
N/N=C1\C(=O)N(Cc2ccccc2)C(=O)C1C(=O)NCc1ccccc1 (stereo not given),> 100 µM (inactive),> 100 µM (inactive),> 100 µM (inactive),> 100 µM (inactive),> 100 µM (inactive),> 100 µM (inactive),> 100 µM (inactive),> 100 µM (inactive),> 100 µM (inactive),> 100 µM (inactive),> 100 µM (inactive),> 100 µM (inactive),> 100 µM (inactive),> 100 µM (inactive),–,–,–,–,–,–
CC1=C(C(=O)NCc2ccccc2)C(c2ccc([N+](=O)[O-])cc2)C(C(=O)NCc2ccccc2)=C(C)N1,46.5 µM (inactive),–,50.7 µM (inactive),–,> 100 µM (inactive),39.8 µM (inactive),25.4 µM (inactive),36.7 µM (inactive),38.6 µM (inactive),37.1 µM (inactive),29.2 µM (inactive),31.2 µM (inactive),18.1 µM (inactive),63.7 µM (inactive),–,–,–,–,–,–
CSc1nc(NC2OC(COC(C)=O)C(OC(C)=O)C(OC(C)=O)C2OC(C)=O)c(/N=C\C=N/c2c(NC3OC(COC(C)=O)C(OC(C)=O)C(OC(C)=O)C3OC(C)=O)nc(SC)n(C)c2=O)c(=O)n1C (stereo not given),> 15.5 µM (inactive),> 100 µM (inactive),62.1 µM (inactive),> 100 µM (inactive),> 100 µM (inactive),> 100 µM (inactive),> 100 µM (inactive),> 100 µM (inactive),> 100 µM (inactive),33.3 µM (inactive),> 100 µM (inactive),> 100 µM (inactive),> 82.2 µM (inactive),> 100 µM (inactive),96.8 µM (inactive),26.1 µM (inactive),> 100 µM (inactive),> 100 µM (inactive),> 100 µM (inactive),49.3 µM (inactive)
CCOC(=O)CCC(NC(=O)c1ccc(NC(OC)c2nc3cc(C(F)(F)F)ccc3nc2-c2ccccc2)cc1)C(=O)OCC (stereo not given),18.5 µM (inactive),6.41 µM (inactive),16.6 µM (inactive),2.67 µM (inactive),18 µM (inactive),15.8 µM (inactive),17.6 µM (inactive),7.6 µM (inactive),16.3 µM (inactive),16.2 µM (inactive),16.5 µM (inactive),2.89 µM (inactive),7.93 µM (inactive),7.62 µM (inactive),–,–,–,–,–,–
